Data reported in PubChem BioAssay (NCI).
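Where inhibition never reached the appropriate level, the endpoint shown equals the highest concentration tested. Otherwise, values were interpolated linearly from a five-concentration, 48-hour dose response in 96-well plates. TGI: concentration producing complete growth inhibition.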

Key:
Assay in all cases: NCI tumour cell line growth inhibition, 48 h
HCT-116 colon = system: HCT-116 colon
OVCAR-4 ovarian = system: OVCAR-4 ovarian
U251 CNS = system: U251 CNS
MDA-MB-231 breast = system: MDA-MB-231 breast
786-0 renal = system: 786-0 renal
SR leukemia = system: SR leukemia
BT-549 breast = system: BT-549 breast
NCI-H522 lung = system: NCI-H522 lung
OVCAR-3 ovarian = system: OVCAR-3 ovarian
PC-3 prostate = system: PC-3 prostate
K-562 leukemia = system: K-562 leukemia
NCI-H460 lung = system: NCI-H460 lung
NCI/ADR-RES ovarian = system: NCI/ADR-RES ovarian
HT29 colon = system: HT29 colon
RXF 393 renal = system: RXF 393 renal
SW-620 colon = system: SW-620 colon
LOX IMVI melanoma = system: LOX IMVI melanoma
M14 melanoma = system: M14 melanoma
SNB-75 CNS = system: SNB-75 CNS
HOP-62 NSCLC = system: HOP-62 NSCLC
SF-268 CNS = system: SF-268 CNS
SK-OV-3 ovarian = system: SK-OV-3 ovarian
MOLT-4 leukemia = system: MOLT-4 leukemia
CCRF-CEM leukemia = system: CCRF-CEM leukemia
IGROV1 ovarian = system: IGROV1 ovarian
COLO 205 colon = system: COLO 205 colon
MALME-3M melanoma = system: MALME-3M melanoma
KM12 colon = system: KM12 colon
UACC-257 melanoma = system: UACC-257 melanoma
SK-MEL-5 melanoma = system: SK-MEL-5 melanoma
EKVX NSCLC = system: EKVX NSCLC
SN12C renal = system: SN12C renal
NCI-H226 lung = system: NCI-H226 lung
RPMI-8226 leukemia = system: RPMI-8226 leukemia
UACC-62 melanoma = system: UACC-62 melanoma
ACHN renal = system: ACHN renal
MCF7 breast = system: MCF7 breast
SF-295 CNS = system: SF-295 CNS
A549 NSCLC = system: A549 NSCLC
NCI-H23 lung = system: NCI-H23 lung
HCC-2998 colon = system: HCC-2998 colon
SNB-19 CNS = system: SNB-19 CNS
TK-10 renal = system: TK-10 renal
HS 578T breast = system: HS 578T breast
OVCAR-8 ovarian = system: OVCAR-8 ovarian
HCT-15 colon = system: HCT-15 colon
MDA-N = system: MDA-N
MDA-MB-435 = system: MDA-MB-435
DU-145 prostate = system: DU-145 prostate
A498 renal = system: A498 renal
OVCAR-5 ovarian = system: OVCAR-5 ovarian
SK-MEL-28 melanoma = system: SK-MEL-28 melanoma
UO-31 renal = system: UO-31 renal
SK-MEL-2 melanoma = system: SK-MEL-2 melanoma
HOP-92 NSCLC = system: HOP-92 NSCLC
CAKI-1 renal = system: CAKI-1 renal
T-47D breast = system: T-47D breast
SF-539 CNS = system: SF-539 CNS
HL-60(TB) leukemia = system: HL-60(TB) leukemia

COC(=O)/C=C\C(C#N)(C#N)N=Cc1ccsc1
TGI (HCT-116 colon): 3.57 µM | TGI (OVCAR-4 ovarian): 32.5 µM | TGI (U251 CNS): 29.7 µM | TGI (MDA-MB-231 breast): 12.2 µM | TGI (786-0 renal): 3.02 µM | TGI (SR leukemia): 0.645 µM | TGI (BT-549 breast): 5.7 µM | TGI (NCI-H522 lung): 1.99 µM | TGI (OVCAR-3 ovarian): 5.37 µM | TGI (PC-3 prostate): 25.4 µM | TGI (K-562 leukemia): 1.62 µM | TGI (NCI-H460 lung): 33.6 µM | TGI (NCI/ADR-RES ovarian): > 19.7 µM | TGI (HT29 colon): 8.97 µM | TGI (RXF 393 renal): 3.72 µM | TGI (SW-620 colon): 3.34 µM | TGI (LOX IMVI melanoma): 5.71 µM | TGI (M14 melanoma): 8.23 µM | TGI (SNB-75 CNS): 29.5 µM | TGI (HOP-62 NSCLC): 30.9 µM | TGI (SF-268 CNS): 46.2 µM | TGI (SK-OV-3 ovarian): 31.3 µM | TGI (MOLT-4 leukemia): 5 µM | TGI (CCRF-CEM leukemia): 0.93 µM | TGI (IGROV1 ovarian): 20.9 µM | TGI (COLO 205 colon): 2.73 µM | TGI (MALME-3M melanoma): 3.5 µM | TGI (KM12 colon): 28.9 µM | TGI (UACC-257 melanoma): 9.35 µM | TGI (SK-MEL-5 melanoma): 15.5 µM | TGI (EKVX NSCLC): 12.5 µM | TGI (SN12C renal): 9.73 µM | TGI (NCI-H226 lung): 45.3 µM | TGI (RPMI-8226 leukemia): 3.28 µM | TGI (UACC-62 melanoma): 9.69 µM | TGI (ACHN renal): 2.72 µM | TGI (MCF7 breast): 5.05 µM | TGI (SF-295 CNS): 27.5 µM | TGI (A549 NSCLC): 33 µM | TGI (NCI-H23 lung): 22.1 µM | TGI (HCC-2998 colon): 29.6 µM | TGI (SNB-19 CNS): 27.6 µM | TGI (TK-10 renal): 5.96 µM | TGI (HS 578T breast): > 68 µM | TGI (OVCAR-8 ovarian): 13.3 µM | TGI (HCT-15 colon): 2.9 µM | TGI (MDA-N): 8.66 µM | TGI (MDA-MB-435): 12.5 µM | TGI (DU-145 prostate): 21.5 µM | TGI (A498 renal): 35.3 µM | TGI (OVCAR-5 ovarian): 16.2 µM | TGI (SK-MEL-28 melanoma): 7.43 µM | TGI (UO-31 renal): 8.85 µM | TGI (SK-MEL-2 melanoma): 30.7 µM | TGI (HOP-92 NSCLC): 3.7 µM | TGI (CAKI-1 renal): 6.07 µM | TGI (T-47D breast): 4.17 µM

Cc1cc(O)c2c(c1)C(=O)C(c1c(C)cc3c(c1O)C(=O)C1OC1C3=O)=CC2=O (configuration not stated)
TGI (HCT-116 colon): 3.21 µM | TGI (SF-539 CNS): 10.2 µM | TGI (OVCAR-4 ovarian): 11.1 µM | TGI (U251 CNS): 20.6 µM | TGI (HL-60(TB) leukemia): 0.0151 µM | TGI (MDA-MB-231 breast): 4.14 µM | TGI (786-0 renal): 4.16 µM | TGI (SR leukemia): 40.1 µM | TGI (BT-549 breast): 6.32 µM | TGI (NCI-H522 lung): 1.4 µM | TGI (OVCAR-3 ovarian): 5.87 µM | TGI (PC-3 prostate): 25.1 µM | TGI (NCI-H460 lung): 25.8 µM | TGI (NCI/ADR-RES ovarian): > 23.1 µM | TGI (HT29 colon): 11.7 µM | TGI (RXF 393 renal): 3.11 µM | TGI (SW-620 colon): 7.54 µM | TGI (LOX IMVI melanoma): 5.87 µM | TGI (M14 melanoma): 8.12 µM | TGI (SNB-75 CNS): 28.1 µM | TGI (HOP-62 NSCLC): 26.3 µM | TGI (SF-268 CNS): 26.2 µM | TGI (SK-OV-3 ovarian): 38.7 µM | TGI (IGROV1 ovarian): 23.9 µM | TGI (MALME-3M melanoma): 3.96 µM | TGI (KM12 colon): 28.8 µM | TGI (UACC-257 melanoma): 11.3 µM | TGI (SK-MEL-5 melanoma): 19.7 µM | TGI (EKVX NSCLC): 12.5 µM | TGI (SN12C renal): 11.2 µM | TGI (NCI-H226 lung): 32.8 µM | TGI (RPMI-8226 leukemia): 3.52 µM | TGI (UACC-62 melanoma): 4.77 µM | TGI (ACHN renal): 2.36 µM | TGI (MCF7 breast): 12.1 µM | TGI (SF-295 CNS): 32.6 µM | TGI (A549 NSCLC): 43.1 µM | TGI (NCI-H23 lung): 22.8 µM | TGI (HCC-2998 colon): 17.2 µM | TGI (SNB-19 CNS): > 50.7 µM | TGI (TK-10 renal): 3.36 µM | TGI (HS 578T breast): 98.9 µM | TGI (OVCAR-8 ovarian): 18.2 µM | TGI (HCT-15 colon): 3.05 µM | TGI (MDA-N): 2.75 µM | TGI (MDA-MB-435): 7.71 µM | TGI (DU-145 prostate): > 47.3 µM | TGI (A498 renal): 14.3 µM | TGI (OVCAR-5 ovarian): 13 µM | TGI (SK-MEL-28 melanoma): 5.53 µM | TGI (UO-31 renal): 3.77 µM | TGI (SK-MEL-2 melanoma): 24.6 µM | TGI (HOP-92 NSCLC): 2.11 µM | TGI (CAKI-1 renal): 2.11 µM | TGI (T-47D breast): > 100 µM
